23 molecules from PubChem BioAssay (NCI) can be followed below.

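Growth conditions: 96-well plates. Treatment: test compound, 48 hours, 5 concentrations. Analysis: linear interpolation between bracketing concentrations; unreached endpoints set to highest concentration. The concentration for 50% growth inhibition is given as GI50. The concentration for full growth arrest is given as TGI.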

Test systems include KM12 colon; LOX IMVI melanoma; NCI-H460 lung; OVCAR-3 ovarian; RPMI-8226 leukemia; SK-MEL-5 melanoma; SR leukemia; U251 CNS; UO-31 renal.
Common to all, as to assay: growth of human tumour cells (NCI), 48 h

Turning to `Cc1ccc(Sc2ccccc2[N+](=O)[O-])cc1`, the TGI was more than 100 µM in the assay on KM12 colon; more than 100 µM in the assay with LOX IMVI melanoma; more than 100 µM in the assay on NCI-H460 lung; more than 100 µM with OVCAR-3 ovarian; more than 100 µM in the assay with RPMI-8226 leukemia; 30.8 µM in the assay on SK-MEL-5 melanoma. In addition, the TGI was more than 100 µM in the assay on SR leukemia, 61.7 µM with U251 CNS and more than 100 µM in the assay on UO-31 renal.

Take `CNc1ccc2ncccc2c1[N+](=O)[O-]`: the TGI in the assay on KM12 colon, in the assay on LOX IMVI melanoma, with NCI-H460 lung, in the assay on OVCAR-3 ovarian, with RPMI-8226 leukemia and in the assay with SK-MEL-5 melanoma was more than 100 µM each time. Further, the TGI in the assay with SR leukemia and in the assay with UO-31 renal was more than 100 µM throughout.

Consider `CCC(COC(=O)CC[C@@H](NC(=O)C(C)NC(=O)C(C)OC1C(O)C(CO)OC(OCc2ccccc2)C1NC(C)=O)C(N)=O)NC1c2ccccc2Nc2cccc([N+](=O)[O-])c21` (some centres not stated), for which the TGI in the assay on KM12 colon, with LOX IMVI melanoma, with NCI-H460 lung, in the assay with OVCAR-3 ovarian, in the assay on RPMI-8226 leukemia and in the assay on SK-MEL-5 melanoma was more than 100 µM in each case. Moreover, the TGI with SR leukemia, in the assay on U251 CNS and in the assay with UO-31 renal was more than 100 µM throughout.

Take `CN(C)CCNC(=O)c1cccc2cc3cc(O)ccc3nc12`: the TGI stood at 10.4 µM in the assay on KM12 colon; 2.72 µM with LOX IMVI melanoma; 2.16 µM in the assay with NCI-H460 lung; 3.61 µM in the assay with OVCAR-3 ovarian; 5.46 µM in the assay with RPMI-8226 leukemia; 2.48 µM in the assay with SK-MEL-5 melanoma. The TGI in the assay with U251 CNS was found to be 4.46 µM.

Consider `CC(C)OP(=O)(OC(C)C)C1=NN(c2ccc([N+](=O)[O-])cc2)C(P(=O)(OC(C)C)OC(C)C)=NN1c1ccc([N+](=O)[O-])cc1`, for which the TGI in the assay with KM12 colon, in the assay on LOX IMVI melanoma, with NCI-H460 lung, in the assay with OVCAR-3 ovarian, with RPMI-8226 leukemia and in the assay on SK-MEL-5 melanoma was more than 100 µM each time. The TGI in the assay on SR leukemia, with U251 CNS and in the assay with UO-31 renal was more than 100 µM each time.

For `CCCc1c(C(=O)OCC)[nH]c(-c2ccc(-c3[nH]c(C(=O)OCC)c(CCC)c3C(=O)OCC)s2)c1C(=O)OCC`, the TGI was more than 100 µM with KM12 colon; 66.3 µM with LOX IMVI melanoma; more than 100 µM in the assay with NCI-H460 lung; more than 100 µM with OVCAR-3 ovarian; more than 100 µM in the assay on RPMI-8226 leukemia; more than 100 µM with SK-MEL-5 melanoma. The TGI in the assay with SR leukemia, in the assay with U251 CNS and in the assay with UO-31 renal was more than 100 µM each time.

With `C=C(C)C1CC/C(C)=C/CC[C@]2(C)O[C@@H]2CCC2=CC1OC2=O` (some centres not stated), the GI50 in the assay with KM12 colon was 21.6 µM; in the assay on LOX IMVI melanoma it was 15.1 µM; with NCI-H460 lung, more than 100 µM; with RPMI-8226 leukemia, 10.5 µM; in the assay with SK-MEL-5 melanoma it was 78.8 µM; in the assay on SR leukemia it was 19 µM. Besides, the GI50 in the assay with U251 CNS was 21.7 µM; with UO-31 renal, 12.7 µM. The TGI in the assay on KM12 colon was more than 100 µM; in the assay on LOX IMVI melanoma, 48.2 µM; in the assay on NCI-H460 lung, more than 100 µM; in the assay on RPMI-8226 leukemia it was 22.2 µM; in the assay with SK-MEL-5 melanoma, more than 100 µM; in the assay on SR leukemia it was 51.5 µM. Moreover, the TGI in the assay with U251 CNS was more than 100 µM; in the assay with UO-31 renal it was 25.3 µM.

On to `CC(=O)NC(CCCCN)C(=O)NCc1ccccc1` (configuration not stated), for which the TGI in the assay with KM12 colon, in the assay with LOX IMVI melanoma, with NCI-H460 lung, with OVCAR-3 ovarian, with RPMI-8226 leukemia and with SK-MEL-5 melanoma was more than 100 µM throughout. For the same molecule, the TGI in the assay on U251 CNS and in the assay on UO-31 renal was more than 100 µM each time.

`COC(=O)CC(C(C(=O)OCc1ccccc1)C(C)O)N1C(=O)OC(c2ccccc2)C1c1ccccc1` (configuration not stated): the TGI in the assay on LOX IMVI melanoma, with NCI-H460 lung, in the assay on OVCAR-3 ovarian, in the assay with RPMI-8226 leukemia, in the assay with SK-MEL-5 melanoma and in the assay with SR leukemia was more than 100 µM each time. For the same molecule, the TGI with U251 CNS and in the assay on UO-31 renal was more than 100 µM in each case.

As for `CC1(C)C2CCC3(OCCO3)C1C(O)C2` (configuration not stated), the TGI with KM12 colon, in the assay with LOX IMVI melanoma, in the assay with NCI-H460 lung, with OVCAR-3 ovarian, in the assay with RPMI-8226 leukemia and in the assay on SK-MEL-5 melanoma was more than 100 µM in each case. Also, the TGI in the assay with U251 CNS and with UO-31 renal was more than 100 µM throughout.

For the molecule `N#C/C(=C\c1cccc(O)c1O)C(N)=O`, the TGI in the assay on KM12 colon is more than 100 µM; in the assay on NCI-H460 lung, more than 100 µM; in the assay on OVCAR-3 ovarian, more than 100 µM; in the assay with RPMI-8226 leukemia it was 65.6 µM; in the assay with U251 CNS it was more than 100 µM; in the assay on UO-31 renal it was 85.3 µM.

For `COc1ccc2c(c1)OCCc1cn[nH]c1-2`, the TGI in the assay with KM12 colon, in the assay on LOX IMVI melanoma, with NCI-H460 lung, in the assay with OVCAR-3 ovarian, in the assay on SK-MEL-5 melanoma and in the assay on U251 CNS was more than 100 µM in each case. This molecule returned a TGI in the assay on UO-31 renal of more than 100 µM.

Turning to `CCSCN(C)c1nc(N(C)C)nc(N(C)C)n1`, the TGI in the assay on KM12 colon, with LOX IMVI melanoma, in the assay with NCI-H460 lung, in the assay with OVCAR-3 ovarian, in the assay on RPMI-8226 leukemia and with SK-MEL-5 melanoma was more than 100 µM throughout. The TGI in the assay with SR leukemia, in the assay on U251 CNS and in the assay on UO-31 renal was more than 100 µM in each case.

With `O=C1C[C@@H]2[C@@H](CCC23CC3)N1`, the TGI with KM12 colon, in the assay on LOX IMVI melanoma, with NCI-H460 lung, in the assay on OVCAR-3 ovarian, in the assay with RPMI-8226 leukemia and in the assay on SK-MEL-5 melanoma was more than 100 µM each time. The TGI with U251 CNS and with UO-31 renal was more than 100 µM in each case.

Regarding `CC(=O)OC12c3ccccc3C(c3ccccc31)C1C(=O)N(c3ccccn3)C(=O)C12` (configuration not stated), the TGI with KM12 colon, with LOX IMVI melanoma, in the assay with OVCAR-3 ovarian, in the assay with RPMI-8226 leukemia, in the assay with SK-MEL-5 melanoma and in the assay with U251 CNS was more than 100 µM throughout. Besides, the TGI in the assay with UO-31 renal was 57.9 µM.

With `O=NN(CCF)C(=O)NC1CC2CCC1C2` (configuration not stated), the TGI is more than 100 µM with KM12 colon; more than 100 µM in the assay on LOX IMVI melanoma; more than 100 µM in the assay on NCI-H460 lung; more than 100 µM in the assay with OVCAR-3 ovarian; more than 87.7 µM in the assay on RPMI-8226 leukemia; more than 100 µM with SK-MEL-5 melanoma. The TGI in the assay on U251 CNS and in the assay on UO-31 renal was more than 100 µM in each case.

As to `O=C1Nc2cc([N+](=O)[O-])c(Br)cc2C1=O`, the TGI is more than 100 µM in the assay with KM12 colon; 35.2 µM in the assay on LOX IMVI melanoma; more than 100 µM with NCI-H460 lung; 32.1 µM with OVCAR-3 ovarian; 43.3 µM in the assay on RPMI-8226 leukemia; 60.7 µM in the assay with SK-MEL-5 melanoma. The TGI turned out to be 37.4 µM in the assay with SR leukemia and 36.2 µM in the assay with UO-31 renal.

On to `CN(C)/C=N\c1ccnc(=O)[nH]1`, for which the TGI in the assay on KM12 colon, in the assay on LOX IMVI melanoma, in the assay with NCI-H460 lung, with OVCAR-3 ovarian, in the assay with RPMI-8226 leukemia and in the assay on SK-MEL-5 melanoma was more than 100 µM each time. The TGI with U251 CNS and in the assay with UO-31 renal was more than 100 µM throughout.

For `COc1cc(C2C(Cl)C(=O)N2NC(=O)c2ccc(NC(C)=O)cc2)ccc1O` (configuration not stated), the TGI in the assay with LOX IMVI melanoma, in the assay with NCI-H460 lung, with OVCAR-3 ovarian, in the assay with RPMI-8226 leukemia, in the assay on SK-MEL-5 melanoma and with U251 CNS was more than 100 µM each time. The molecule further showed a TGI with UO-31 renal of more than 100 µM.

Turning to `N#C/C(=C\c1ccc([N+](=O)[O-])s1)c1nc2cc(Cl)ccc2s1`, the GI50 is 1.44 µM in the assay with KM12 colon; 1.42 µM in the assay with OVCAR-3 ovarian; 0.675 µM in the assay with RPMI-8226 leukemia; 0.314 µM in the assay with SK-MEL-5 melanoma; 0.323 µM in the assay on SR leukemia; 0.599 µM in the assay on U251 CNS. In addition, the GI50 in the assay with UO-31 renal is 0.602 µM. In addition, the TGI in the assay with KM12 colon was 3.84 µM; in the assay on OVCAR-3 ovarian it was 3.23 µM; in the assay with RPMI-8226 leukemia it was 3.26 µM; with SK-MEL-5 melanoma, 0.955 µM; in the assay on SR leukemia it was more than 100 µM; in the assay on U251 CNS it was 3.02 µM. Also, in the assay with UO-31 renal, the TGI turned out to be 2.8 µM.

For the molecule `CC(=O)NNc1nc(C)c(C(=O)NNC(=O)C(=O)Nc2cccc(C(C)=O)c2)s1`, the TGI with KM12 colon is 57.7 µM; in the assay on LOX IMVI melanoma, 39.1 µM; in the assay on NCI-H460 lung, 33.2 µM; with RPMI-8226 leukemia, more than 100 µM; in the assay on SK-MEL-5 melanoma it was more than 100 µM; in the assay with SR leukemia it was 45.8 µM. Besides, the TGI was 90.4 µM in the assay with U251 CNS and 30.9 µM in the assay on UO-31 renal.

Turning to `Cc1cc(NC(=O)C2C3C=CC(O3)C2C(=O)O)no1` (configuration not stated), the TGI with LOX IMVI melanoma is 29.8 µM; in the assay on NCI-H460 lung it was more than 100 µM; with OVCAR-3 ovarian, more than 100 µM; in the assay on RPMI-8226 leukemia it was 37.4 µM; in the assay with SK-MEL-5 melanoma it was more than 100 µM; in the assay on SR leukemia, 42.8 µM. In addition, the TGI in the assay with U251 CNS was 53.8 µM; in the assay on UO-31 renal, more than 100 µM.

In the case of `C[S+](C)CC1OC(n2cnc3c(N)ncnc32)C(O)C1O` (configuration not stated), the TGI in the assay with KM12 colon, in the assay on LOX IMVI melanoma, in the assay on NCI-H460 lung, in the assay on OVCAR-3 ovarian, in the assay on RPMI-8226 leukemia and with SK-MEL-5 melanoma was more than 225 µM each time. For the same molecule, the TGI in the assay on U251 CNS and in the assay on UO-31 renal was more than 225 µM each time.
